Source: patent publication US5532257A, “Benzothiazole compound, production thereof and use thereof” (Senju Pharmaceutical Co., Ltd, priority 1993, dated 1996)

What was measured:
[1] = tested on: Sorbitol accumulation in erythrocytes; assay: Inhibitory action on sorbitol accumulation in tissues of rats with experimental (streptozotocin) diabetes: erythrocytes; format: in vivo, Sprague-Dawley rats; conditions: % of control (control = 100%), measured 3 hours after final administration
Description: (§1) 2) Inhibitory action on sorbitol accumulation in tissues of rats with experimental diabetes
(§2) Test Drugs: Compound of the invention and EPALRESTAT (described in Japanese Patent Unexamined Publication No. 40478/1982)
(§3) Sprague-Dawley rats (male, 6 weeks old, 5-6 per group) were fasted for 18 hours and injected with streptozotocin (SIGMA, 60 mg/kg) via the tail vein under etherization to prepare rats with diabetes.
(§4) The various compounds were orally administered at 4, 8 and 24 hours after the injection of streptozotocin, at 10 mg/kg or 30 mg/kg as a 0.5% carboxymethylcellulose suspension. During the administrations, the rats were raised under free access to feed and water and the sorbitol content in the tissues (erythrocytes, sciatic nerve, lens) was determined 3 hours after the final administration, according to the enzyme method of H. Y. Bergmeyer et al. [Methods of Enzymatic Analysis, vol. 3, 1323-1330 (1974)]with the use of SDH (sorbitol dehydrogenase) and NAD (β-nicotinamide adenine dinucleotide). The results are expressed in percent (%) relative to the value of a control group administered with 0.5% carboxymethylcellulose solution (solvent) instead of the compound, which was taken as 100%.

[2] = tested on: Sorbitol accumulation in sciatic nerve; assay: Inhibitory action on sorbitol accumulation in tissues of rats with experimental (streptozotocin) diabetes: sciatic nerve; format: in vivo, Sprague-Dawley rats; conditions: % of control (control = 100%), measured 3 hours after final administration
Description: as §1, §2, §3, §4

[3] = tested on: Sorbitol accumulation in lens; assay: Inhibitory action on sorbitol accumulation in tissues of rats with experimental (streptozotocin) diabetes: lens; format: in vivo, Sprague-Dawley rats; conditions: % of control (control = 100%), measured 3 hours after final administration
Description: as §1, §2, §3, §4

ICR mice = conditions: mouse, in vivo
Description: The acute toxicity (safety) of the compound of the present invention was confirmed by the following method.
Normal ICR mice (male, 7 weeks old, 5 per group) were fasted for 18 hours and the compound (300 mg/kg) of Example 37 was orally administered as a 0.5% carboxymethylcellulose suspension. To the control group, a 0.5% carboxymethylcellulos e solution alone was orally administered and observation was continued for 14 days thereafter, during which period the mice were allowed to take feed and water freely.

aldose reductase = molecular target: T1, aldose reductase (Sus scrofa, UniProt P80276); assay: Aldose reductase inhibitory action (swine lens enzyme, dl-glyceraldehyde substrate, NADPH, absorbance change at 340 nm); format: biochemical; conditions: 3 mM dl-glyceraldehyde, 0.1 mM NADPH, pH 6.2, 25° C., 2 minutes, read-out: IC50 (concentration inhibiting the aldose reductase activity by 50%)
T1 construct: swine lenses freeze-stored at -80° C. were homogenized with distilled water; from tissue; host or cells: swine lens
Description: That is, swine lenses freeze-stored at -80° C. were homogenized with distilled water and cetrifuged at 10,000 G for 15 minutes. The supernatant was prepared into a 40% ammonium sulfate solution and subjected to cetrifugation at 10,000 G for 10 minutes.
The activity of aldose reductase was determined by the above-mentioned method of S. Hayman et al. That is, the above-mentioned enzyme solution (25 μl) and a drug solution (25 μl) dissolved in 1% DMSO at various concentrations were added to a 40 mM phosphate buffer (200 μl, pH 6.2) containing final concentrations of 0.4 M lithium sulfate, 0.1 mM NADPH (reduced type nicotinamide adenine dinucleotide phosphate) and 3 mM dl-glyceraldehyde as a substrate.
The test drug number indicates the example number to be mentioned later.

[4] = 30 mg/kg oral at 4, 8 and 24 hours after streptozotocin
[5] = 10 mg/kg oral at 4, 8 and 24 hours after streptozotocin, ** p<0.01 (Tukey)
[6] = 10 mg/kg oral at 4, 8 and 24 hours after streptozotocin, * p<0.05, ** p<0.01 (Tukey)

| SMILES | Sorbitol accumulation, erythrocytes [1, 4] | Sorbitol accumulation, sciatic nerve [2, 4] | Sorbitol accumulation, lens [3, 4] | Sorbitol accumulation, erythrocytes [1, 5] | Sorbitol accumulation, sciatic nerve [2, 5] | Sorbitol accumulation, lens [3, 6] | death among the mice (ICR mice) | IC50 (aldose reductase) |
| --- | --- | --- | --- | --- | --- | --- | --- | --- |
| CC(/C=C1\SC(=S)N(CC(=O)O)C1=O)=C\c1ccccc1 [EPALRESTAT, reference compound] | 66.5% | 99.9% | 89.1% | – | – | – | – | – |
| O=C(O)CCC(=O)N(Cc1nc2c(F)c(F)cc(F)c2s1)c1ccc(Cl)cc1 [Example 37, N-(4-chlorophenyl)-N-[(4,5,7-trifluorobenzothiazol-2-yl)methyl]succinamic acid] | – | – | – | 16.4% | 17.8% | 55.4% | no case of death | – |
| O=C(O)CCC(=O)N(Cc1nc2c(Cl)c(Cl)ccc2s1)c1ccc(Cl)cc1 [Example 39, N-(4-chlorophenyl)-N-[(4,5-dichlorobenzothiazol-2-yl)methyl]succinamic acid] | – | – | – | – | – | – | – | 13 nM |
| Cc1ccc(N(Cc2nc3c(F)c(F)cc(F)c3s2)C(=O)CCC(=O)O)cc1 [Example 41, N-[(4,5,7-trifluorobenzothiazol-2-yl)methyl]-N-(4-methylphenyl)succinamic acid] | – | – | – | – | – | – | – | 13 nM |
| O=C(O)CCC(=O)N(Cc1nc2c(F)c(F)cc(F)c2s1)c1ccccc1Cl [Example 48, N-(2-chlorophenyl)-N-[(4,5,7-trifluorobenzothiazol-2-yl)methyl]succinamic acid] | – | – | – | 32.8% | 45.7% | 56.6% | – | – |
| COc1ccc(N(Cc2nc3c(F)c(F)cc(F)c3s2)C(=O)CCC(=O)O)cc1 [Example 55, N-[(4,5,7-trifluorobenzothiazol-2-yl)methyl]-N-(4-methoxyphenyl)succinamic acid] | – | – | – | 2.5% | 27.2% | 74.4% | – | – |
| O=C(O)CCC(=O)N(Cc1nc2c(F)c(F)cc(F)c2s1)c1ccccc1 [Example 65, N-[(4,5,7-trifluorobenzothiazol-2-yl)methyl]-N-phenylsuccinamic acid] | – | – | – | 6.4% | 4.0% | 71.8% | – | 15 nM |
| CSc1ccccc1N(Cc1nc2c(F)c(F)cc(F)c2s1)C(=O)CCC(=O)O [Example 72, N-[(4,5,7-trifluorobenzothiazol-2-yl)methyl]-N-(2-methylthiophenyl)succinamic acid] | – | – | – | 19.2% | 10.8% | 50.0% | – | 13 nM |
